The text below walks through data of patent US8188139B2, “Heterocyclic-substituted phenyl methanones” (Hoffman-La Roche Inc., priority 2005, dated 2012).

This assay addresses T1, mGlyT-1b (Mus musculus, UniProt P28571).
T1 construct: host or cells: Flp-in-CHO
T1 sequence (P28571 1-651 isoform P28571-2): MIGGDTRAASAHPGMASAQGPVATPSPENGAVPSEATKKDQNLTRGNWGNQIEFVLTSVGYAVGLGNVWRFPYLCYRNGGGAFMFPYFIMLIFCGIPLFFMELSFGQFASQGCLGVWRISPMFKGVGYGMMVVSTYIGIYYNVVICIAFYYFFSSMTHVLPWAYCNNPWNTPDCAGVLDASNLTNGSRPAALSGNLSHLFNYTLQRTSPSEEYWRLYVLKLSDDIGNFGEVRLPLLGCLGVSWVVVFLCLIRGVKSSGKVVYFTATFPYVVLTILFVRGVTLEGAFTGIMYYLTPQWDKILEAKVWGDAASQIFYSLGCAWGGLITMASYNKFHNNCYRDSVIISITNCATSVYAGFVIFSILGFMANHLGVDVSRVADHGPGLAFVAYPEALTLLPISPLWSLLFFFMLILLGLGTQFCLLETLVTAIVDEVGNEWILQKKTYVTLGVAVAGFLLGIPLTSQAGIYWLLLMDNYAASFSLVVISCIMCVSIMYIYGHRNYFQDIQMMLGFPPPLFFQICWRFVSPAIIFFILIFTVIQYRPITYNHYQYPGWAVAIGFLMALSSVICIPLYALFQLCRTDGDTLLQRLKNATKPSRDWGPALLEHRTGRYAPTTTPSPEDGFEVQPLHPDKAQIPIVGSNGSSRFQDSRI
The assay can be described thus: Glycine uptake inhibition assay (mGlyT-1b). It counts as cell-based. As to conditions: inhibition of [3H]-glycine uptake in Flp-in-CHO cells transfected with mGlyT-1b cDNA; 20 min preincubation at 22° C.; read-out: IC50 (μM) at GlyT-1. The gist of the method:
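Flp-in CHO cells stably expressing mouse GlyT-1b were preincubated with inhibitor (concentration range) for 20 min at 22° C. in pH 7.4 uptake buffer; nonspecific uptake defined with 10 mM glycine. [3H]-glycine 60 nM plus 25 μM unlabelled glycine was then added; cell-associated radioactivity counted by scintillation and IC50 derived.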

The IC50 is the concentration needed to halve the response being measured. `CS(=O)(=O)c1ccc(-c2ccc(F)cc2)c(C(=O)N2Cc3ccc(C4CCOCC4)cc3C2)c1` [Example 283, (4′-Fluoro-4-methanesulfonyl-biphenyl-2-yl)-[5-(tetrahydro-pyran-4-yl)-1,3-dihydro-isoindol-2-yl]-methanone]: the half-inhibitory concentration (IC50) turned out to be 0.016 µM.
With `C[C@H](Oc1ccc(S(C)(=O)=O)cc1C(=O)N1Cc2ccc(-c3ccsc3)cc2C1)C(F)(F)F` [Example 330, [5-Methanesulfonyl-2-(2,2,2-trifluoro-1-methyl-ethoxy)-phenyl]-(5-thiophen-3-yl-1,3-dihydro-isoindol-2-yl)-methanone] the figure was 0.02 µM; with `C[C@H](Oc1ccc(S(C)(=O)=O)cc1C(=O)N1Cc2cc(F)c(C(F)(F)F)cc2C1)C(F)(F)F` [Example 224, (5-Fluoro-6-trifluoromethyl-1,3-dihydro-isoindol-2-yl)-[5-methanesulfonyl-2-((S)-2,2,2-trifluoro-1-methyl-ethoxy)-phenyl]-methanone], 0.019 µM.
The same measure for `Cc1nc2c(cc1C(F)(F)F)CN(C(=O)c1cc(S(C)(=O)=O)ccc1O[C@@H](C)C(F)(F)F)C2` [Example 163, [5-Methanesulfonyl-2-((S)-2,2,2-trifluoro-1-methyl-ethoxy)-phenyl]-(2-methyl-3-trifluoromethyl-5,7-dihydro-pyrrolo[3,4-b]pyridin-6-yl)-methanone]: 0.045 µM; for `C[C@@H](Oc1ccc(S(C)(=O)=O)cc1C(=O)N1Cc2ccc(C(F)(F)F)cc2C1)C(F)(F)F` [Example 17, [5-Methanesulfonyl-2-((R)-2,2,2-trifluoro-1-methyl-ethoxy)-phenyl]-(5-trifluoromethyl-1,3-dihydro-isoindol-2-yl)-methanone]: 0.012 µM.
